Assay [1] has as its system thymus cancer cells (Ty-82 cells). Kind of assay: Cytotoxicity to thymus cancer cells (Ty-82 cells), WST-1. The conditions noted are these: Homo sapiens, TY82, 72 h. A general note: Tetrazolium dyes change colour on reduction, which living cells bring about.
Description: The following experiment was performed to evaluate the cytotoxicity of [1,2,4]triazolo[4,3-a]quinoxaline derivative according to the present invention to thymus cancer cells (Ty-82 cells).
First, thymus cancer cells (Ty-82 cells) were distributed in a 96 well plate at the density of 2.5×10^4 cells/well. 24 hours later, the plated cells were treated with the compounds of the present invention dissolved in DMSO at the different concentrations ranging from 0.01 μM to 10 μM. 72 hours later, the activities of the compounds were determined using WST-1 reagent.
For assay [2], the system named is acute myelogenous leukemia cells (MV-4-11 cells). Kind of assay: Cytotoxicity to acute myelogenous leukemia cells (MV-4-11 cells), CCK-8. The conditions noted are these: Homo sapiens, MV4-11, 72 h.
In assay [3] the target is BRD4 (BD1+BD2) bromodomain (Homo sapiens (Human), UniProt O60885). Briefly: BRD4 binding inhibition (AlphaScreen, GST-BRD4 vs tetraacetylated histone H4 peptide). The method in brief: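 AlphaScreen read after 30 min dark incubation at room temperature with glutathione acceptor/streptavidin donor beads (10 μg/ml each). The beads were added to compound plus 100 nM biotin-H4 (K5,8,12,16-acetyl) peptide and 100 nM GST-BRD4 BD1+BD2 in pH 7.4 HEPES/Tween/BSA/DTT buffer.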
Background: Alpha assays give light when donor and acceptor beads are brought close together.

[4] abbreviates: read-out: IC50, cytotoxicity against thymus cancer cells.
Setting [5] is: read-out: Ty-82 Cytotoxicity IC50.
Setting [6] is: read-out: MV-4-11 Cytotoxicity IC50.
[7] abbreviates: GST-BRD4 (BD1+BD2) vs biotinylated acetyl-histone H4 peptide, AlphaScreen, read-out: BRD4 IC50.
Setting [8] is: GST-BRD4 (BD1+BD2) / biotinylated acetyl-histone H4 (Lys5,8,12,16) peptide, read-out: IC50, BRD4 binding inhibition.
[9] abbreviates: read-out: IC50, cytotoxicity against acute myelogenous leukemia cells.

Read-outs that look alike come from different tables or passages of the source. Some results are limits rather than exact numbers.

In general, IC50 refers to the concentration at which inhibition is half-maximal. Consider `COc1cc2nc(NCCCCNC(=O)NC(C)C)c3nnc(C)n3c2cc1OC` [Example 90], for which the IC50 was not above 500 nM in assay [1] (setting [4]), 400 nM in assay [1] (setting [5]), 300 nM in assay [2] (setting [6]) and 63 nM in assay [3] (setting [7]).
As to `COCCOc1cc2nc(NCCCCNC(=O)CC(C)(C)C)c3nnc(C)n3c2cc1OCCOC` [Example 167, N-{4-[7,8-bis-(2-methoxy-ethoxy)-1-methyl-[1,2,4]triazolo[4,3-a]quinoxaline-4-ylamino]-butyl}-3,3-dimethyl-butyramide], the IC50 in assay [1] (setting [5]) is 880 nM; in assay [2] (setting [6]), 510 nM; in assay [3] (setting [8]), not above 50 nM; in assay [3] (setting [7]) it was 40 nM.
Regarding `COc1cc2nc(NCCCCNC(=O)C(C)(C)C)c3nnc(C)n3c2cc1OC` [Example 59, N-[4-(7,8-dimethoxy-1-methyl-[1,2,4]triazolo[4,3-a]quinoxaline-4-ylamino)-butyl]-2,2-dimethyl-propionamide], the IC50 in assay [1] (setting [4]) is not above 500 nM; in assay [1] (setting [5]) it was 420 nM; in assay [2] (setting [6]), 310 nM; in assay [3] (setting [8]), not above 50 nM; in assay [3] (setting [7]), 34 nM.
For the molecule `COc1cc2nc(NCCCCNC(=O)OC(C)C)c3nnc(C)n3c2cc1C` [Example 467, [4-(7-methoxy-1,8-dimethyl-[1,2,4]triazolo[4,3-a]quinoxaline-4-ylamino)-butyl]-carbamic acid isopropylester], the 50% inhibitory concentration (IC50) in assay [1] (setting [4]) is not above 500 nM; in assay [1] (setting [5]), 200 nM; in assay [2] (setting [9]), not above 200 nM; in assay [2] (setting [6]) it was 66 nM; in assay [3] (setting [8]) it was not above 50 nM; in assay [3] (setting [7]), 23 nM.
Turning to `COc1cc2nc(NCCCCNC(=O)OC(C)C)c3nnc(C)n3c2cc1OC` [Example 60, [4-(7,8-dimethoxy-1-methyl-[1,2,4]triazolo[4,3-a]quinoxaline-4-ylamino)-butyl]-carbamic acid isopropylester], the half-maximal inhibitory concentration (IC50) is not above 500 nM in assay [1] (setting [4]); 120 nM in assay [1] (setting [5]); not above 200 nM in assay [2] (setting [9]); 10 nM in assay [2] (setting [6]); not above 50 nM in assay [3] (setting [8]); 12 nM in assay [3] (setting [7]).
`COc1cc2nc(NCCCCNC(=O)c3ccccc3Cl)c3nnc(C)n3c2cc1OC` [Example 99, 2-chloro-N-[4-(7,8-dimethoxy-1-methyl-[1,2,4]triazolo[4,3-a]quinoxaline-4-ylamino)-butyl]-benzamide]: the IC50 in assay [1] (setting [5]) is 550 nM; in assay [2] (setting [6]), 230 nM; in assay [3] (setting [8]) it was not above 50 nM; in assay [3] (setting [7]), 21 nM.
`COc1cc2nc(NCCCCNC(=O)OCC(C)C)c3nnc(C)n3c2cc1C` [Example 468, [4-(7-methoxy-1,8-dimethyl-[1,2,4]triazolo[4,3-a]quinoxaline-4-ylamino)-butyl]-carbamic acid isobutylester]: the half-maximal inhibitory concentration (IC50) is not above 500 nM in assay [1] (setting [4]); 230 nM in assay [1] (setting [5]); not above 200 nM in assay [2] (setting [9]); 73 nM in assay [2] (setting [6]); not above 50 nM in assay [3] (setting [8]); 22 nM in assay [3] (setting [7]).
For the molecule `Cc1nnc2c(NCCCCNC(=O)Oc3ccccc3)nc3cc4c(cc3n12)OCCO4` [Example 191, [4-(1-methyl-8,9-dihydro-7,10-dioxa-2,3,5,11b-tetraaza-cyclopenta[a]anthracene-4-ylamino)-butyl]-carbamic acid phenylester], the concentration for half-maximal inhibition (IC50) in assay [1] (setting [4]) is not above 500 nM; in assay [1] (setting [5]), 310 nM; in assay [2] (setting [9]), not above 200 nM; in assay [2] (setting [6]) it was 90 nM; in assay [3] (setting [7]), 10 nM; in assay [3] (IC50, BRD4 binding inhibition, GST-BRD4 (BD1+BD2) / biotinylated acetyl-histone H4 (Lys5,8,12,16) peptide), not above 10 nM.
`COc1cc2nc(NCCCCNC(=O)c3ccc(C)nc3Cl)c3nnc(C)n3c2cc1OC` [Example 108, 2-chloro-N-[4-(7,8-dimethoxy-1-methyl-[1,2,4]triazolo[4,3-a]quinoxaline-4-ylamino)-butyl]-6-methyl-nicotinamide]: the IC50 in assay [1] (setting [4]) was not above 500 nM; in assay [1] (setting [5]) it was 370 nM; in assay [2] (setting [6]) it was 510 nM; in assay [3] (setting [8]), not above 50 nM; in assay [3] (setting [7]) it was 17 nM.
Regarding `COc1ccc2c(c1)nc(NCCCCNC(=O)C(C)(C)C)c1nnc(C)n12` [Example 277, N-[4-(7-methoxy-1-methyl-[1,2,4]triazolo[4,3-a]quinoxaline-4-ylamino)-butyl]-2,2-dimethyl-propionamide], the values for the 50% inhibitory concentration (IC50) in assay [1] (setting [5]) and in assay [2] (setting [6]) were 930 nM and 550 nM, respectively.
Regarding `Cc1nnc2c(NCCCCNC(=O)CC(C)C)nc3cc4c(cc3n12)OCCO4` [Example 181, 3-methyl-N-[4-(1-methyl-8,9-dihydro-7,10-dioxa-2,3,5,11b-tetraaza-cyclopenta[a]anthracene-4-ylamino)-butyl]-butyramide], the half-inhibitory concentration (IC50) is not above 500 nM in assay [1] (setting [4]); 300 nM in assay [1] (setting [5]); not above 200 nM in assay [2] (setting [9]); 50 nM in assay [2] (setting [6]); not above 50 nM in assay [3] (setting [8]); 17 nM in assay [3] (setting [7]).
Regarding `Cc1nnc2c(NCCCCNC(=O)c3ccccc3)nc3cc4c(cc3n12)OCCO4` [Example 186, N-[4-(1-methyl-8,9-dihydro-7,10-dioxa-2,3,5,11b-tetraaza-cyclopenta[a]anthracene-4-ylamino)-butyl]-benzamide], the IC50 in assay [1] (setting [4]) was not above 500 nM; in assay [1] (setting [5]), 340 nM; in assay [2] (setting [6]), 680 nM; in assay [3] (setting [8]), not above 50 nM; in assay [3] (setting [7]), 22 nM.
Consider `COc1cc2nc(NCCCCNC(=O)C(C)(C)C)c3nnc(C)n3c2cc1C` [Example 466], for which the concentration for half-maximal inhibition (IC50) in assay [1] (setting [4]) was not above 500 nM; in assay [1] (setting [5]), 340 nM; in assay [2] (setting [9]), not above 200 nM; in assay [2] (setting [6]), 83 nM.
Consider `Cc1nnc2c(NCCCCNC(=O)c3ccccc3)nc3ccccc3n12` [Example 11, N-[4-(1-methyl-[1,2,4]triazolo[4,3-a]quinoxaline-4-ylamino)-butyl]-benzamide], for which the values for the IC50 in assay [1] (setting [5]) and in assay [2] (setting [6]) were 950 nM and 710 nM, respectively.
On to `COc1cc2nc(NCCCCNC(=O)CC(C)(C)C)c3nnc(C)n3c2cc1OC` [Example 75, N-[4-(7,8-dimethoxy-1-methyl-[1,2,4]triazolo[4,3-a]quinoxaline-4-ylamino)-butyl]-3,3-dimethyl-butyramide], for which the concentration for half-maximal inhibition (IC50) in assay [1] (setting [5]) is 790 nM; in assay [2] (setting [6]), 340 nM; in assay [3] (setting [8]), not above 50 nM; in assay [3] (setting [7]), 28 nM.
In the case of `COc1cc2nc(NCCCCNC(=O)CC(C)C)c3nnc(C)n3c2cc1OC` [Example 74, N-[4-(7,8-dimethoxy-1-methyl-[1,2,4]triazolo[4,3-a]quinoxaline-4-ylamino)-butyl]-3-methyl-butyramide], the IC50 is not above 500 nM in assay [1] (setting [4]); 170 nM in assay [1] (setting [5]); not above 200 nM in assay [2] (setting [9]); 110 nM in assay [2] (setting [6]); not above 50 nM in assay [3] (setting [8]); 28 nM in assay [3] (setting [7]).
Take `COc1cc2nc(NCCCCNC(=O)NC(C)(C)C)c3nnc(C)n3c2cc1OC` [Example 88, 1-tert-butyl-3-[4-(7,8-dimethoxy-1-methyl-[1,2,4]triazolo[4,3-a]quinoxaline-4-ylamino)-butyl]-urea]: the concentration for half-maximal inhibition (IC50) is 970 nM in assay [1] (setting [5]), 510 nM in assay [2] (setting [6]), not above 50 nM in assay [3] (setting [8]) and 18 nM in assay [3] (setting [7]).
With `COc1cc(C)c2nc(NCCCCNC(=O)OC(C)C)c3nnc(C)n3c2c1` [Example 161, [4-(8-methoxy-1,6-dimethyl-[1,2,4]triazolo[4,3-a]quinoxaline-4-ylamino)-butyl]-carbamic acid isopropylester], the concentration for half-maximal inhibition (IC50) was 810 nM in assay [1] (setting [5]), not above 200 nM in assay [2] (setting [9]), 80 nM in assay [2] (setting [6]) and not above 10 nM in assay [3] (setting [8]).
In the case of `COc1cc2nc(NCCCCNC(=O)CC(C)C)c3nnc(C)n3c2cc1C` [Example 469, N-[4-(7-methoxy-1,8-dimethyl-[1,2,4]triazolo[4,3-a]quinoxaline-4-ylamino)-butyl]-3-methyl-butyramide], the IC50 in assay [1] (setting [4]) was not above 500 nM; in assay [1] (setting [5]), 94 nM; in assay [2] (setting [9]), not above 200 nM; in assay [2] (setting [6]), 10 nM; in assay [3] (setting [7]), 55 nM.
As to `COc1ccc2c(c1)nc(NCCCCNC(=O)OC(C)C)c1nnc(C)n12` [Example 278, [4-(7-methoxy-1-methyl-[1,2,4]triazolo[4,3-a]quinoxaline-4-ylamino)-butyl]-carbamic acid isopropylester], the IC50 in assay [1] (setting [4]) was not above 500 nM; in assay [1] (setting [5]) it was 180 nM; in assay [2] (setting [9]), not above 200 nM; in assay [2] (setting [6]), 160 nM; in assay [3] (setting [7]), 51 nM.
`C=CCOC(=O)NCCCCNc1nc2cc(OC)c(OC)cc2n2c(C)nnc12` [Example 65, [4-(7,8-dimethoxy-1-methyl-[1,2,4]triazolo[4,3-a]quinoxaline-4-ylamino)-butyl]-carbamic acid allylester]: the IC50 in assay [1] (setting [4]) was not above 500 nM; in assay [1] (setting [5]), 370 nM; in assay [2] (setting [9]), not above 200 nM; in assay [2] (setting [6]), 130 nM; in assay [3] (setting [8]), not above 50 nM; in assay [3] (setting [7]), 22 nM.
`COCCOc1cc2nc(NCCCCNC(=O)CC(C)C)c3nnc(C)n3c2cc1OCCOC` [Example 166, N-{4-[7,8-bis-(2-methoxy-ethoxy)-1-methyl-[1,2,4]triazolo[4,3-a]quinoxaline-4-ylamino]-butyl}-3-methyl-butyramide]: the half-inhibitory concentration (IC50) in assay [1] (setting [5]) was 580 nM; in assay [2] (setting [9]), not above 200 nM; in assay [2] (setting [6]), 70 nM; in assay [3] (setting [8]), not above 50 nM; in assay [3] (setting [7]), 20 nM.

Values taken from US11028090B2 (Dong Wha Pharm. Co., Ltd., priority 2017, dated 2021).
